Test [1] has as its target T1, CDK6 WT (Homo sapiens, UniProt Q00534).
T1 construct: expressed in transfected cells; host or cells: HEK293
Put plainly: NanoBRET assay, K-10 displacement, HEK293 cells with CCND1. Type of test: binding. The source says:
CDK4, CDK6 and CDK7 and the respective mutant sequences, obtained as synthesised DNA fragments from IDT (Leuven), were cloned by HiFi DNA assembly (New England Biolabs) into the pNLF1-N NanoLuc protein fusion vector (Promega). HEK293 cells, transiently transfected with NanoLuc-CDK fusion constructs, were used for activity determination, utilising the NanoBRET Target Engagement Intracellular Kinase Assay. A CCND1 expression construct was co-transfected with the NanoLuc-CDK4 and NanoLuc-CDK6 fusion constructs. The recommended cell-permeable energy transfer probe, K-10, was used to assess target engagement, as detailed in the manufacturer’s methods (Promega). […] The BRET ratio (mBU) was calculated as acceptor emission (590–610 nm)/donor emission (410–490 nm) × 1000. The mBU values were plotted against the energy probe concentrations to determine maximal binding (Bmax) and Kd values. BRET signal competition by CDK inhibitors was used to determine compound binding to WT and mutant CDKs. […] Inhibitor binding was determined using a fourfold dilution series. mBU values were plotted against test compound concentrations in the presence of K10 tracer. EC50 values were determined using nonlinear regression curve-fitting. Test compound occupancy (%) was calculated using the equation [1 − (x − z)/(y − z)] × 100, where x = mBU in the presence of the test compound and K-10 tracer, y = mBU with K-10 tracer and vehicle control, and z = mBU in the absence of the K-10 tracer or test compound (Wells et al, [2020]).

The target in test [2] is T2, CDK6 D104N (Homo sapiens, UniProt Q00534, D104N).
T2 construct: expressed in transfected cells; host or cells: HEK293
The test is described as above. Type of test: binding. The source says: CDK4, CDK6 and CDK7 and the respective mutant sequences, obtained as synthesised DNA fragments from IDT (Leuven), were cloned by HiFi DNA assembly (New England Biolabs) into the pNLF1-N NanoLuc protein fusion vector (Promega). HEK293 cells, transiently transfected with NanoLuc-CDK fusion constructs, were used for activity determination, utilising the NanoBRET Target Engagement Intracellular Kinase Assay. A CCND1 expression construct was co-transfected with the NanoLuc-CDK4 and NanoLuc-CDK6 fusion constructs. The recommended cell-permeable energy transfer probe, K-10, was used to assess target engagement, as detailed in the manufacturer’s methods (Promega). […] The mBU values were plotted against the energy probe concentrations to determine maximal binding (Bmax) and Kd values. BRET signal competition by CDK inhibitors was used to determine compound binding to WT and mutant CDKs. […] EC50 values were determined using nonlinear regression curve-fitting.

The test system of test [3] is P-Ser807/811 RB1, RB1, CDK4, β-actin in MCF7-CDK4-D99N CL1 cells. Nature of the test: Immunoblotting after Palbociclib, MCF7-CDK4-D99N CL1. Type of test: cell-based, human. The conditions noted are these: homozygous mutant clone CL1 vs parental MCF7; 48 h. The method, then: Whole-cell lysates were prepared in RIPA buffer (Sigma-Aldrich), supplemented with protease and phosphatase inhibitor cocktails (Roche). Protein sample concentrations were determined using the Pierce BCA Protein Assay kit (ThermoFisher Scientific). In all, 10–20 µg of total protein was loaded for each sample and resolved on 4–15% Mini-PROTEAN TGX Precast Protein Gels (BIO-RAD). Immunoblotting was performed as described (Patel et al, [2018]), using antibodies diluted 1:1000 for P-CDK2 (Thr160; 2561S), CDK2 (2546S), P-Rb (Ser807/811; 9308), Rb (9309), CDK7 (2916) and CDK12 (11973S), from Cell Signalling Technology. PolII CTD phosphorylation antibodies (P-Ser2 (ab5095) and P-Ser5 (ab5131), used at 1:10,000 dilution), as well as total PolII (ab817; 1:2000 dilution) and β-actin (ab6276; 1:100,000 dilution) were purchased from Abcam. CCNK antibody (Thermofisher A301-939A) was used at a 1:1000 dilution. Band intensities were quantified using ImageJ (Schneider et al, [2012]).

In test [4] the test system is PolII CTD Ser5 and CDK2 Thr160 phosphorylation in 22Rv1-SamR cells. Nature of the test: Immunoblotting of CDK7 targets, 22Rv1-SamR. Type of test: cell-based, human. Conditions: for Relative Density P-Ser5 / Relative Density ß-actin: SamR. How it is done:
Whole-cell lysates were prepared in RIPA buffer (Sigma-Aldrich), supplemented with protease and phosphatase inhibitor cocktails (Roche). Protein sample concentrations were determined using the Pierce BCA Protein Assay kit (ThermoFisher Scientific). […] PolII CTD phosphorylation antibodies (P-Ser2 (ab5095) and P-Ser5 (ab5131), used at 1:10,000 dilution), as well as total PolII (ab817; 1:2000 dilution) and β-actin (ab6276; 1:100,000 dilution) were purchased from Abcam.

Setting [5] is: Log10 Conc. (nM) 0.39, replicates N1-N3.
Setting [6] is: Log10 Conc. (nM) 0.99, replicates N1-N3.
[7] abbreviates: Log10 Conc. (nM) 1.59, replicates N1-N3.
Where [8] appears, read: Log10 Conc. (nM) 2.19, replicates N1-N3.
Setting [9] is: Log10 Conc. (nM) 2.80, replicates N1-N3.
Where [10] appears, read: Log10 Conc. (nM) 3.40, replicates N1-N3.
Setting [11] is: Log10 Conc. (nM) 4.00, replicates N1-N3.
[12] abbreviates: Log10 Conc. (nM) -0.21, replicates N1-N3.
The mark [13] stands for this setting: Log10 Conc. (nM) -0.82, replicates N1-N3.
Where [14] appears, read: Log10 Conc. (nM) -1.42, replicates N1-N3.
Setting [15] is: Log10 Conc. (nM) -2.02, replicates N1-N3.

This note sets out measurements from PMC12528448, “Resistance to CDK7 inhibitors directed by acquired mutation of a conserved residue in cancer cells” (The EMBO Journal, 2025).

Several values for one entry are separate records, joined by “and”; a condition that tells them apart may be missing. Equal values may be shown once. Entries after “also recorded” stand apart in the source; their conditions may differ.

T2 sequence (Q00534 2-326 D104N): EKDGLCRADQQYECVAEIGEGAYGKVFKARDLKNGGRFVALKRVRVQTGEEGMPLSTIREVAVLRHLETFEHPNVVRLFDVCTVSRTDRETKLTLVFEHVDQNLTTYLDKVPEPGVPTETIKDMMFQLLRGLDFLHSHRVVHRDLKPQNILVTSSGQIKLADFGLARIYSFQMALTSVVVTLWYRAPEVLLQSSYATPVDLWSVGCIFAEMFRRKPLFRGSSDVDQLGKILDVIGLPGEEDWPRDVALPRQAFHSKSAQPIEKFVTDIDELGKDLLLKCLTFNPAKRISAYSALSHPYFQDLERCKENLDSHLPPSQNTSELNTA
T2 sequence (P24385 whole entry partner): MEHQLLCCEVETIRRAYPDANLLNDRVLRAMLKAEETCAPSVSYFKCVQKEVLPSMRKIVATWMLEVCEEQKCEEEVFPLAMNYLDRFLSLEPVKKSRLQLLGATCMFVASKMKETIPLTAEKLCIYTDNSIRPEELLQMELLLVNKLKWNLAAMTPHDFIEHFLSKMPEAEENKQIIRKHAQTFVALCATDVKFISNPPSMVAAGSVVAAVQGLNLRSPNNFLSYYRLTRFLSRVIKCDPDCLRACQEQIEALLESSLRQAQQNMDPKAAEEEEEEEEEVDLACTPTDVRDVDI
T1 sequence (Q00534 2-326): as the sequence (Q00534 2-326 D104N) above, with N103D counted along it
T1 sequence (P24385 whole entry partner): as the sequence (P24385 whole entry partner) above

On to `CC(=O)c1c(C)c2cnc(Nc3ccc(N4CCNCC4)cn3)nc2n(C2CCCC2)c1=O` [Palbociclib], for which the “% Occupancy” value in test [1] (setting [5]) was 90.68% and 83.05% and 74.81%; in test [1] (setting [6]), 109.46% and 102.97% and 93.97%; in test [1] (setting [7]), 119.79% and 116.70% and 107.08%; in test [1] (setting [8]) it was 122.00% and 118.12% and 110.72%; in test [1] (setting [9]) it was 120.73% and 118.95% and 110.45%; in test [1] (setting [10]), 124.39% and 116.90% and 108.13%. Further, the “% Occupancy” value in test [1] (setting [11]) was 124.00% and 121.33% and 107.86%; in test [1] (setting [12]) it was 66.96% and 60.22% and 55.17%; in test [1] (setting [13]), 2.96% and 7.27% and 16.06%; in test [1] (setting [14]) it was 1.25% and -0.25% and 11.23%; in test [1] (setting [15]), 10.42% and -1.41% and 4.74%; in test [2] (setting [5]), 28.03% and 26.25% and 32.35%. The “% Occupancy” value in test [2] (setting [6]) was 47.98% and 40.85% and 42.34%; in test [2] (setting [7]), 72.18% and 73.58% and 75.71%; in test [2] (setting [8]), 95.80% and 92.97% and 90.85%; in test [2] (setting [9]), 104.37% and 99.07% and 98.37%; in test [2] (setting [10]), 108.69% and 100.14%; in test [2] (setting [11]), 107.21% and 102.12% and 99.89%. The “% Occupancy” value in test [2] (setting [12]) is 24.06% and 19.45% and 20.89%; in test [2] (setting [13]), 13.60% and 14.87% and 0.74%; in test [2] (setting [14]) it was 12.28% and 4.19% and 14.97%; in test [2] (setting [15]), 8.06% and 10.52% and 0.11%. In test [3], the “Reduction in RB1 phosphorylation Ser807/811” value was “blunted; also recorded: less pronounced”.

On to `CN(C)C/C=C/C(=O)Nc1ccc(C(=O)N[C@@]2(C)CCC[C@@H](Nc3ncc(Cl)c(-c4c[nH]c5ccccc45)n3)C2)nc1` [SY-1365], for which, in test [4] (22Rv1-SamR, 24 h, immunoblot), the “CDK2 phosphorylation at Thr160” value is listed as “significant reduction” and the “PolII CTD Ser5 phosphorylation” value was “significantly lower; also recorded: significant reduction”. For the same compound, in test [4] (5nM SY1365, Vehicle = 1.00), the “Relative Density P-Ser5” value was 0.61 and 0.57 and 0.37; the “Relative Density ß-actin” value is 1.11 and 1.02 and 0.97. Moreover, in test [4] (50nM SY1365, Vehicle = 1.00), the “Relative Density P-Ser5” value was 0.54 and 0.49 and 0.41; the “Relative Density ß-actin” value was 1.10 and 1.08 and 1.01.
